Assay results: patent publication EP4660182A1, “NAV1.7- AND/OR NAV1.8-INHIBITING ARYL PYRIDINE COMPOUNDS, PROCESSES FOR THE PREPARATION THEREOF, COMPOSITIONS, USES, METHODS FOR TREATMENT USING SAME, AND KITS” (Eurofarma Laboratórios S.A., priority 2023, dated 2024)
pIC50: −log10 of the molar value.

Key:
[1] = biological target: T1, human sodium channels Nav 1.8 (Homo sapiens, UniProt Q9Y5Y9); assay: Automated whole-cell voltage-clamp (ScreenPatch 384P) sodium current block, Nav 1.8; assay type: cell-based; settings: CHO cells stably expressing human Nav 1.8; inactivation step -40 mV 8 s, test step 10 mV (TP1A); eight concentrations; exposure at least five minutes; room temperature; read-out: Nav1.8 IC50
T1 construct: expressed in transfected cells
Procedure: (§1) Biological assays were performed on Chinese hamster ovary (CHO) cells that express human sodium channels Nav 1.8 or Nav 1.7 in a stable manner.
(§2) The experimental protocol voltage-clamp using the whole cell configuration was established on the automated ScreenPatch® 384P platform (SP384PE, Nanion Technologies, Livingston, NJ) and the results were recorded with a Nanion 384-well Patch Clamp chip (NPC) (Nanion Technologies, Livingston, NJ).
(§3) Formula I compounds were diluted in eight concentrations in the extracellular solution composed of saline solution, buffered with HEPES (mM): NaCl, 137; KCl, 4; CaCl2, 3,8; MgCl2, 1; HEPES, 10; Glucose, 10; pH 7.4. The […], 50; CsF, 90; MgCl2, 5; EGTA, 5; HEPES, 10; pH 7.2. The duration of exposure of each compound with cells expressing Nav 1.7 or Nav 1.8 was at least five minutes and the assays were performed at room temperature.
(§4) The measurements of the sodium currents of Nav 1.8 and Nav 1.7 were obtained using the voltage protocol described below.
(§5) A holding voltage of -100 mV was established followed by an inactivation voltage step at -40 mV for 8 seconds, followed by a step of -100 mV for 20 ms, followed by a 20 ms step for 10 mV for Nav 1.8 or 0 mV for Nav 1.7 (TP1A) before returning to the holding voltage of -100 mV.
(§6) The protocol was repeated at a frequency of 0.05 Hz and the amplitude of the current was quantified throughout the recording of the TP1A phase. The variation in the amplitude of the peak current was evaluated according to the formula described below, after exposing the cells expressing the channels to each concentration of the different compounds: % Block = (1−(ITP1A,molecule/ITP1A,basal)×100%, [formula] wherein ITP1A,basal and ITP1A,molecule represent the peaks of sodium current input into TP1A before exposure to the compound and in the presence of the compound, respectively.
(§7) Data were obtained by nonlinear regression (nonlinear least squares) with XLfit for Excel (Microsoft, Redmond, WA).
(§8) The compounds were tested in at least one assay to obtain the value of CI50. For compounds that were tested in two or more assays, the results are described as the means of the CI50 values.

[2] = biological target: T2, human sodium channels Nav 1.7 (Homo sapiens, UniProt Q15858); assay: Automated whole-cell voltage-clamp (ScreenPatch 384P) sodium current block, Nav 1.7; assay type: cell-based; settings: CHO cells stably expressing human Nav 1.7; inactivation step -40 mV 8 s, test step 0 mV (TP1A); eight concentrations; exposure at least five minutes; room temperature; read-out: Nav1.7 IC50
T2 construct: expressed in transfected cells
Procedure: as §1, §2, §3, §4, §5, §6, §7, §8

T1 sequence (Q9Y5Y9 whole entry): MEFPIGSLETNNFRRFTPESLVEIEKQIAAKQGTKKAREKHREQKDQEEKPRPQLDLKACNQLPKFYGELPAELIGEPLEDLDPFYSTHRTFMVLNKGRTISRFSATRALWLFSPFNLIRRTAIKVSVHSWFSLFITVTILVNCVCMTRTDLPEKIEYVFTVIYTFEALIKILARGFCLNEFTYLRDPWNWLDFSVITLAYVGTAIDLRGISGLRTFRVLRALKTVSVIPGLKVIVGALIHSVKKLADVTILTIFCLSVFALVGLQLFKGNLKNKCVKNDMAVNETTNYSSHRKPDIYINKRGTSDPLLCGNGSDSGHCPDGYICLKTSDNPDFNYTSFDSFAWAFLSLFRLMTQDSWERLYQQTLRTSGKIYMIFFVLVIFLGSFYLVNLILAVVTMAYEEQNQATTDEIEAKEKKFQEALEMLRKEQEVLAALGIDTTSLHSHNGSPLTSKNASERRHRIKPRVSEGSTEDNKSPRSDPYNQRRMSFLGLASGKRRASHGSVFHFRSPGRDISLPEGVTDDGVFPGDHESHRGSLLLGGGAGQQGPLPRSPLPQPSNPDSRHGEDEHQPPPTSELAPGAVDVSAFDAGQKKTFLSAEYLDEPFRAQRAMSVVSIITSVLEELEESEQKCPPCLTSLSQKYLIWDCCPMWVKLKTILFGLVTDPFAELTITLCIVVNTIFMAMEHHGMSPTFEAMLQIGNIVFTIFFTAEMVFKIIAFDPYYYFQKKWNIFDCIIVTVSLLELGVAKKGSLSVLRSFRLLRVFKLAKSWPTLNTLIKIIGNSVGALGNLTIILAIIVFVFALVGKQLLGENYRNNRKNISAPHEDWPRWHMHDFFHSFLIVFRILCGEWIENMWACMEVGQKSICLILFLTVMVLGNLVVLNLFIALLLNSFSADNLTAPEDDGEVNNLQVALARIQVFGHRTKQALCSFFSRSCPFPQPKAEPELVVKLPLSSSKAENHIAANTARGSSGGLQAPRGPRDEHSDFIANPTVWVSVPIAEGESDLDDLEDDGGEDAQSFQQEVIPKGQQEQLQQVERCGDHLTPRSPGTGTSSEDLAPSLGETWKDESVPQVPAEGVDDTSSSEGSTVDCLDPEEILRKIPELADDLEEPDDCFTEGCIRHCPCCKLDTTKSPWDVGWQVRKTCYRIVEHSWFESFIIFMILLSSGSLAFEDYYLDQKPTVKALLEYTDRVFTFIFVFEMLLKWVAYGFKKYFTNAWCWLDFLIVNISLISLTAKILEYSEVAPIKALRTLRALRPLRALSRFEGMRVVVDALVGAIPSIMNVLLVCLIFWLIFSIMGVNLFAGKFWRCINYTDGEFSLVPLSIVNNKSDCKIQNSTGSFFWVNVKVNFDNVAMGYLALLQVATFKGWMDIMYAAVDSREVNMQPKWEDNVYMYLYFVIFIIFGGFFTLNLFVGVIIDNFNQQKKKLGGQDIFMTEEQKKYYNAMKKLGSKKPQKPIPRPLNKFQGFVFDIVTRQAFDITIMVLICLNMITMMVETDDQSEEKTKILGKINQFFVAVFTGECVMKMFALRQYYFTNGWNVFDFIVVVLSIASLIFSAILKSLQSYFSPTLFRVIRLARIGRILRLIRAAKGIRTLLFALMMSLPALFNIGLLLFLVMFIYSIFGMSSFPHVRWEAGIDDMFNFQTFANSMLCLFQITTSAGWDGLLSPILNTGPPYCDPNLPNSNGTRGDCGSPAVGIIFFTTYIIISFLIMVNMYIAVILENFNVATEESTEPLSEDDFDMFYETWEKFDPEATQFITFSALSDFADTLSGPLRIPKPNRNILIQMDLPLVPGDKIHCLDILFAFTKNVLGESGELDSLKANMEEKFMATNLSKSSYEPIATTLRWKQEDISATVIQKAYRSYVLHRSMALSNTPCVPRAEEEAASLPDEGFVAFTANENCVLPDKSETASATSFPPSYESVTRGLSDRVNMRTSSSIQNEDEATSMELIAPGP
T2 sequence (Q15858 whole entry): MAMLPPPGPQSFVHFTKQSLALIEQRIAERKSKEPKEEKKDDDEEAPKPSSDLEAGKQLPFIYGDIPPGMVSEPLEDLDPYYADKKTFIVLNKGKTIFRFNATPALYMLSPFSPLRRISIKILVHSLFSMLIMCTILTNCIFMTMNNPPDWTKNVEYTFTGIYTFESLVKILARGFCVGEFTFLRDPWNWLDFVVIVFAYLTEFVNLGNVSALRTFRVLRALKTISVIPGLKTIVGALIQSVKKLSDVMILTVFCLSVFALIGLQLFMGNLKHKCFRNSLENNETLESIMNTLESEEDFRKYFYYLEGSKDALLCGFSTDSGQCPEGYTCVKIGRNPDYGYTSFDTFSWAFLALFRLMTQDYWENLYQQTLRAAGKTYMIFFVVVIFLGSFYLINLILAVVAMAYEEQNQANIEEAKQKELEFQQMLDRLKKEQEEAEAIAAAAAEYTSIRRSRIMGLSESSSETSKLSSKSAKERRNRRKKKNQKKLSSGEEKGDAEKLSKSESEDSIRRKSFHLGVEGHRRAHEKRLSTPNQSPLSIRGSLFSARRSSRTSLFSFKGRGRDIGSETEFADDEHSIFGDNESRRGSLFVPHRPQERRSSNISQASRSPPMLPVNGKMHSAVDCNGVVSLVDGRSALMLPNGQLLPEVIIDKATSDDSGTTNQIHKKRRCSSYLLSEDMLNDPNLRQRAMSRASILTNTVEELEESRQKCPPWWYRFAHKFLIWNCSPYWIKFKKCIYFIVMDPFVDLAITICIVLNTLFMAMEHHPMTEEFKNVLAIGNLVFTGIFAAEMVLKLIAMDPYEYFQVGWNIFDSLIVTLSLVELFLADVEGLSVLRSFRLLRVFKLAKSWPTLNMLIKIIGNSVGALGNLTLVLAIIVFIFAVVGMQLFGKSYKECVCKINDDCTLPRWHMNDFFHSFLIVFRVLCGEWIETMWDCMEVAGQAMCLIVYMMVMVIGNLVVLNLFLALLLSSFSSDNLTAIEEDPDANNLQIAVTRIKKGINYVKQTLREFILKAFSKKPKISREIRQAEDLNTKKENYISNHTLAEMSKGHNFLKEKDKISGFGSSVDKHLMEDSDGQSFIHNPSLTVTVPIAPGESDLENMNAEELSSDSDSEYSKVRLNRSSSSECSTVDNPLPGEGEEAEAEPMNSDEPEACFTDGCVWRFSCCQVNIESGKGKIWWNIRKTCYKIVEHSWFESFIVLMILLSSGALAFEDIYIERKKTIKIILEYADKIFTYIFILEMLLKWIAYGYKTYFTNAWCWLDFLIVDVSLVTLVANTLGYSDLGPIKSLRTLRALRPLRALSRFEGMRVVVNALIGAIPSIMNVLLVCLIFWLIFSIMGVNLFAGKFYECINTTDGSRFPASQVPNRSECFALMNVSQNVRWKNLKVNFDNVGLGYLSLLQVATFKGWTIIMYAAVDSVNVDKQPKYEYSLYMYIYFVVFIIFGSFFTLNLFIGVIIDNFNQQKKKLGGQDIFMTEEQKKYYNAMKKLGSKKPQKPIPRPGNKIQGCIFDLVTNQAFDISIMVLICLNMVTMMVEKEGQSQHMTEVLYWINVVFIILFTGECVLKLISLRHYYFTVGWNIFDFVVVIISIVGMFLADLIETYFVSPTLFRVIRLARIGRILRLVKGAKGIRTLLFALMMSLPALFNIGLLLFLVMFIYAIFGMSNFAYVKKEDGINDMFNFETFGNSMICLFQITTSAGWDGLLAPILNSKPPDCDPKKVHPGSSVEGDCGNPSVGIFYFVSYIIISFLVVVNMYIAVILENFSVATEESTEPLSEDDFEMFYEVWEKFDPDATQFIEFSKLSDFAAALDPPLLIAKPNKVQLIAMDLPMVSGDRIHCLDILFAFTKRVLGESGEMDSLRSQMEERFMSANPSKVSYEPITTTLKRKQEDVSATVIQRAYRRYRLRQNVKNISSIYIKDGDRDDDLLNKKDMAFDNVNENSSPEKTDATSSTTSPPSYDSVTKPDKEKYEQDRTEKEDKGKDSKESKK

| SMILES | pIC50 [1] | pIC50 [2] |
| --- | --- | --- |
| CCOc1ccc(-c2cncc(C(=O)N/N=C/c3cc(OC)ccc3O)n2)cn1 [Compound 19, (E)-6-(6-ethoxypyridine-3-yl)-N'-(2-hydroxy-5-methoxybenzylidene)pyrazine-2-carbohydrazide] | 6.00 to 6.30 | < 6.00 |
| COc1cnc(F)c(/C=N/NC(=O)c2cncc(-c3ccc(OCC4CNC4)nc3)n2)c1 [Compound 143, (E)-6-(6-(azetidin-3-ylmethoxy)pyridine-3-yl)-N'-((2-fluoro-5-methoxypyridine-3-yl)methylene)pyrazine-2-carbohydrazide] | < 6.00 | < 6.00 |
| CCOc1ccc(-c2cncc(C(=O)N/N=C/c3[nH]ccc3C)n2)cn1 [Compound 56, (E)-6-(6-ethoxypyridine-3-yl)-N'-((3-methyl-1H-pyrrole-2-yl)methylene)pyrazine-2-carbohydrazide] | 6.00 to 6.30 | < 6.00 |
| CCOc1ccc(-c2nccc(C(=O)N/N=C/c3cc(OC)cnc3F)n2)cn1 [Compound 72, (E)-2-(6-ethoxypyridine-3-yl)-N'-((2-fluoro-5-methoxypyridine-3-yl)methylene) pyrimidine-4-carbohydrazide] | > 6.30 | < 6.00 |
| CCOc1ccc(-c2cncc(C(=O)N/N=C/c3cc(OC4CCC4)ccc3F)n2)cn1 [Compound 21, (E)-N'-(5-cyclobutoxy-2-fluorobenzylidene)-6-(6-ethoxypyridine-3-yl)pyrazine-2-carbohydrazide] | > 6.30 | 6.00 to 6.30 |
| CCOc1ccc(-c2cncc(C(=O)N/N=C/c3cc(N4CC(O)C4)ccc3F)n2)cn1 [Compound 37, (E)-6-(6-ethoxypyridine-3-yl)-N'-(2-fluoro-5-(3-hydroxyazetidine-1-yl)benzylidene) pyrazine-2-carbohydrazide] | < 6.00 | < 6.00 |
| CC(C)Oc1ccc(F)c(/C=N/NC(=O)c2cncc(-c3ccc(OC(F)(F)F)nc3)n2)c1 [Compound 92, (E)-N'-(2-fluoro-5-isopropoxybenzylidene)-6-(6-(trifluoromethoxy)pyridine-3-yl)pyrazine-2-carbohydrazide] | > 6.30 | > 6.30 |
| COc1ccc(F)c(/C=N/NC(=O)c2nc(-c3ccc(OC(F)(F)F)nc3)cnc2O)c1 [Compound 99, (E)-N'-(2-fluoro-5-methoxybenzylidene)-3-hydroxy-6-(6-(trifluoromethoxy)pyridine-3-yl)pyrazine-2-carbohydrazide] | < 6.00 | < 6.00 |
| CCOc1ccc(-c2cncc(C(=O)N(C)/N=C/c3cc(OC)cnc3F)n2)cn1 [Compound 175, (E)-6-(6-ethoxypyridine-3-yl)-N'-((2-fluoro-5-methoxypyridine-3-yl)methylene)-N-methylpyrazine-2-carbohydrazide] | < 6.00 | < 6.00 |
| CC(O)c1cccc(/C=N/NC(=O)c2cncc(-c3ccc(OC(F)F)nc3)n2)c1 (stereo not drawn) [Compound 109, (E)-6-(6-(difluoromethoxy)pyridine-3-yl)-N'-(3-(1-hydroxyethyl)benzylidene) pyrazine-2-carbohydrazide] | 6.00 to 6.30 | < 6.00 |
| COc1cc(/C=N/NC(=O)c2cncc(-c3ccc(OC(F)F)nc3)n2)c(F)cn1 [Compound 106, (E)-6-(6-(difluoromethoxy)pyridine-3-yl)-N'-((5-fluoro-2-methoxypyridine-4-yl)methylene)pyrazine-2-carbohydrazide] | 6.00 to 6.30 | < 6.00 |
| COc1cnc(F)c(/C=N/NC(=O)c2cncc(-c3ccc(OC(F)(F)F)nc3)n2)c1 [Compound 95, (E)-N'-((2-fluoro-5-methoxypyridine-3-yl)methylene)-6-(6-(trifluoromethoxy)pyridine-3-yl)pyrazine-2-carbohydrazide] | > 6.30 | < 6.00 |
| CCOc1ccc(-c2nc(C(=O)N/N=C/c3cc(OC)cnc3F)cn(C)c2=O)cn1 [Compound 75, (E)-6-(6-ethoxypyridine-3-yl)-N'-((2-fluoro-5-methoxypyridine-3-yl)methylene)-4-methyl-5-oxo-4,5-dihydropyrazine-2-carbohydrazide] | < 6.00 | < 6.00 |
| CCOc1ccc(-c2cncc(C(=O)N/N=C/c3cc(OC4CNC4)ccc3F)n2)cn1 [Compound 20, (E)-N'-(5-(azetidine-3-yloxy)-2-fluorobenzylidene)-6-(6-ethoxypyridine-3-yl)pyrazine-2-carbohydrazide] | < 6.00 | < 6.00 |
| COc1cnc(O)c(/C=N/NC(=O)c2cncc(-c3ccc(OC(F)F)nc3)n2)c1 [Compound 117, (E)-6-(6-(difluoromethoxy)pyridine-3-yl)-N'-((2-hydroxy-5-methoxypyridine-3-yl)methylene)pyrazine-2-carbohydrazide] | < 6.00 | < 6.00 |
| CCOc1ccc(-c2cncc(C(=O)N/N=C/c3cncn3C)n2)cn1 [Compound 58, (E)-6-(6-ethoxypyridine-3-yl)-N'-((1-methyl-1H-imidazole-5-yl)methylene)pyrazine-2-carbohydrazide] | < 6.00 | < 6.00 |
| CCOc1cc(C)c(-c2cncc(C(=O)N/N=C/c3cc(OC)cnc3F)n2)cn1 [Compound 151, (E)-6-(6-ethoxy-4-methylpyridine-3-yl)-N'-((2-fluoro-5-methoxypyridine-3-yl)methylene)pyrazine-2-carbohydrazide] | > 6.30 | < 6.00 |
| CCOc1ccc(-c2cncc(C(=O)N/N=C/c3cc(OC)ccc3C)n2)cn1 [Compound 17, (E)-6-(6-ethoxypyridine-3-yl)-N'-(5-methoxy-2-methylbenzylidene)pyrazine-2-carbohydrazide] | > 6.30 | 6.00 to 6.30 |
| COc1ccc(F)c(/C=N/NC(=O)c2cncc(-c3ccc(C#N)nc3)n2)c1 [Compound 130, (E)-6-(6-cyanopyridine-3-yl)-N'-(2-fluoro-5-methoxybenzylidene)pyrazine-2-carbohydrazide] | < 6.00 | < 6.00 |
| COc1cccc(/C=N/NC(=O)c2cncc(-c3ccc(OC(F)(F)F)nc3)n2)c1 [Compound 90, (E)-N'-(3-methoxybenzylidene)-6-(6-(trifluoromethoxy)pyridine-3-yl)pyrazine-2-carbohydrazide] | > 6.30 | < 6.00 |
| CCOc1ccc(-c2cncc(C(=O)N/N=C/c3cc(CN)ccc3F)n2)cn1 [Compound 13, (E)-N'-(5-(aminomethyl)-2-fluorobenzylidene)-6-(6-ethoxypyridine-3-yl)pyrazine-2-carbohydrazide] | < 6.00 | < 6.00 |
| CCOc1ccc(-c2cnc(N)c(C(=O)N/N=C/c3cc(OC)ccc3F)n2)cn1 [Compound 64, (E)-3-amino-6-(6-ethoxypyridine-3-yl)-N'-(2-fluoro-5-methoxybenzylidene) pyrazine-2-carbohydrazide] | 6.00 to 6.30 | < 6.00 |
| CCOc1cc(OC)c(-c2cncc(C(=O)N/N=C/c3cc(OC)cnc3F)n2)cn1 [Compound 153, (E)-6-(6-ethoxy-4-methoxypyridine-3-yl)-N'-((2-fluoro-5-methoxypyridine-3-yl)methylene)pyrazine-2-carbohydrazide] | < 6.00 | < 6.00 |
| COc1cnc(F)c(/C=N/NC(=O)c2cncc(-c3ccc(OC4CNC4)nc3)n2)c1 [Compound 142, (E)-6-(6-(azetidin-3-yloxy)pyridine-3-yl)-N'-((2-fluoro-5-methoxypyridine-3-yl)methylene)pyrazine-2-carbohydrazide] | < 6.00 | < 6.00 |
| COc1ccc(F)c(/C=N/NC(=O)c2cncc(-c3ccc(OC(F)(F)F)nc3)n2)n1 [Compound 97, (E)-N'-((3-fluoro-6-methoxypyridine-2-yl)methylene)-6-(6-(trifluoromethoxy)pyridine-3-yl)pyrazine-2-carbohydrazide] | < 6.00 | < 6.00 |
| CCOc1ccc(-c2cncc(C(=O)N/N=C/c3ccnn3CC)n2)cn1 [Compound 52, (E)-6-(6-ethoxypyridine-3-yl)-N'-((1-ethyl-1H-pyrazole-5-yl)methylene)pyrazine-2-carbohydrazide] | > 6.30 | < 6.00 |
| CCOc1ccc(-c2cncc(C(=O)N/N=C/c3cccc(O)n3)n2)cn1 [Compound 40, (E)-6-(6-ethoxypyridine-3-yl)-N'-((6-hydroxypyridine-2-yl)methylene)pyrazine-2-carbohydrazide] | < 6.00 | < 6.00 |
